Results on twelve compounds are retold here after patent US20070197569A1, “Method for treating central nervous system disorders with substituted 2-imidazoline derivatives” (priority 2006, published 2007).

What is called Ki is the dissociation constant of the complex between target and ligand, obtained from inhibition or displacement. Lower therefore signals higher affinity. The term Kd denotes the equilibrium constant for the complex coming apart.

In one test the target is T1, mouse TAAR1 (Mus musculus, UniProt Q923Y8).
T1 construct: expressed in transfected cells; host or cells: HEK293 (ATCC # CRL-1573), stably transfected with pIRESneo2 expression plasmid
T1 sequence (Q923Y8 whole entry): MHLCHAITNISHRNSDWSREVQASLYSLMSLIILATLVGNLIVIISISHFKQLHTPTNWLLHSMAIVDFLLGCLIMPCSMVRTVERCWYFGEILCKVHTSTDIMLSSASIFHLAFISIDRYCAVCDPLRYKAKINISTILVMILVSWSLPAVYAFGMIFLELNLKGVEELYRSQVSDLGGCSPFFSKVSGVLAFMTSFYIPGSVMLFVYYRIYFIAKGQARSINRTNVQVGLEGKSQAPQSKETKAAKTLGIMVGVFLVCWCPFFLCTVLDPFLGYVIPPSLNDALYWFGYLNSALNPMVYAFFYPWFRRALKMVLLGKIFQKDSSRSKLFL
Kind of test: Radioligand binding on membranes of HEK293 cells stably expressing TAAR1, [3H]-rac-2-(1,2,3,4-tetrahydro-1-naphthyl)-2-imidazoline. The following applies: mouse TAAR1; radioligand at 60 nM; 4° C., 30 min incubation. As for the experimental part: For the construction of expression plasmids the coding sequences of human, rat and mouse TAAR 1 were amplified from genomic DNA essentially as described by Lindemann et al.. The Expand High Fidelity PCR System (Roche Diagnostics) was used with 1.5 mM Mg^2+ and purified PCR products were cloned into pCR2.1-TOPO cloning vector (Invitrogen) following the instructions of the manufacturer. PCR products were subcloned into the pIRESneo2 vector (BD Clontech, Palo Alto, Calif.), and expression vectors were sequence verified before introduction in cell lines.
HEK293 cells (ATCC # CRL-1573) were cultured essentially as described Lindemann et al. (2005). For the generation of stably transfected cell lines HEK293 cells were transfected with the pIRESneo2 expression plasmids containing the TAAR coding sequences (described above) with Lipofectamine 2000 (Invitrogen) according to the instructions of the manufacturer, and 24 hrs post transfection the culture medium was supplemented with 1 mg/ml G418 (Sigma, Buchs, Switzerland). After a culture period of about 10 d clones were isolated, expanded and tested for responsiveness to trace amines (all compounds purchased from Sigma) with the cAMP Biotrak Enzyme immunoassay (EIA) System (Amersham) following the non-acetylation EIA procedure provided by the manufacturer.
Cells at confluence were rinsed with ice-cold phosphate buffered saline without Ca^2+ and Mg^2+ containing 10 mM EDTA and pelleted by centrifugation at 1000 rpm for 5 min at 4° C. The pellet was then washed twice with ice-cold phosphate buffered saline and cell pellet was frozen immediately by immersion in liquid nitrogen and stored until use at −80° C. Cell pellet was then suspended in 20 ml HEPES—NaOH (20 mM), pH 7.4 containing 10 mM EDTA, and homogenized with a Polytron (PT 3000, Kinematica) at 10,000 rpm for 10 s. The homogenate was centrifuged at 48,000×g for 30 min at 4° C. and the pellet resuspended in 20 ml HEPES—NaOH (20 mM), pH 7.4 containing 0.1 mM EDTA (buffer A), and homogenized with a Polytron at 10,000 rpm for 10 s. The homogenate was then centrifuged at 48,000×g for 30 min at 4° C. and the pellet resuspended in 20 ml buffer A, and homogenized with a Polytron at 10,000 rpm for 10 s. Protein concentration was determined by the method of Pierce (Rockford, Ill.). The homogenate was then centrifuged at 48,000×g for 10 min at 4° C., resuspended in HEPES—NaOH (20 mM), pH 7.0 including MgCl2 (10 mM) and […] homogenized with a Polytron at 10,000 rpm for 10 s.
Binding assay was performed at 4° C. in a final volume of 1 ml, and with an incubation time of 30 min. The radioligand [^3H]-rac-2-(1,2,3,4-tetrahydro-1-naphthyl)-2-imidazoline was used at a concentration equal to the calculated Kd value of 60 nM to give a bound at around 0.1% of the total added radioligand concentration, and a specific binding which represented approximately 70-80% of the total binding. Non-specific binding was defined as the amount of [^3H]-rac-2-(1,2,3,4-tetrahydro-1-naphthyl)-2-imidazoline bound in the presence of the appropriate unlabelled ligand (10 μM). Competing ligands were tested in a wide range of concentrations (10 pM-30 μM). […] Each experiment was performed in duplicate. All incubations were terminated by rapid filtration through UniFilter-96 plates (Packard Instrument Company) and glass filter GF/C, pre-soaked for at least 2 h in polyethylenimine 0.3%, and using a Filtermate 96 Cell Harvester (Packard Instrument Company). The tubes and filters were then washed 3 times with 1 ml aliquots of cold buffer B. Filters were not dried and soaked in Ultima gold (45 μl/well, Packard Instrument Company) and bound radioactivity was counted by a TopCount Microplate Scintillation Counter (Packard Instrument Company).
On to `Cc1cccc(C)c1N=C1NCCN1` [Example 2, (4,5-Dihydro-1H-imidazol-2-yl)-(2,6-dimethyl-phenyl)-amine or tautomer], for which the affinity corresponds to a Ki of 0.149 µM.

In turn, `CCc1cccc(CC)c1NC1=NCCN1` [Example 3, (2,6-Diethyl-phenyl)-(4,5-dihydro-1H-imidazol-2-yl)-amine or tautomer] returned a Ki of 0.026 µM.

Compound `Brc1cccc(Br)c1N=C1NCCN1` [Example 6, (2,6-Dibromo-phenyl)-imidazolidin-2-ylidene-amine or tautomer] had a Ki of 0.501 µM.

As for `CCc1cccc(C)c1NC1=NCCN1` [Example 7, (4,5-Dihydro-1H-imidazol-2-yl)-(2-ethyl-6-methyl-phenyl)-amine or tautomer], the Ki came to 0.169 µM.

Take `Cc1cccc(C(C)C)c1NC1=NCCN1` [Example 8, (4,5-Dihydro-1H-imidazol-2-yl)-(2-isopropyl-6-methyl-phenyl)-amine or tautomer]: affinity was put at a Ki of 0.476 µM.

Compound `Cc1ccc(Cl)cc1N=C1NCCN1` [Example 9, (5-Chloro-2-methyl-phenyl)-imidazolidin-2-ylidene-amine or tautomer] returned a Ki of 0.225 µM.

With `O=C(CCc1ccc(NC2=NCCN2)cc1)c1ccc2ccccc2c1` [Example 11, 3-[4-(4,5-Dihydro-1H-imidazol-2-ylamino)-phenyl]-1-naphthalen-2-yl-propan-1-one ortautomer], the affinity corresponds to a Ki of 0.121 µM.

With `c1ccc2c(N=C3NCCN3)cccc2c1` [Example 14, Imidazolidin-2-ylidene-naphthalen-1-yl-amineor tautomer], the affinity corresponds to a Ki of 0.036 µM.

In turn, `c1cc2c(c(NC3=NCCN3)c1)CCCC2` [Example 15, (4,5-Dihydro-1H-imidazol-2-yl)-(5,6,7,8-tetrahydro-naphthalen-1-yl)-amine or tautomer] registered an inhibition constant (Ki) of 0.039 µM.

`Cc1csc(Cl)c1NC1=NCCN1` [Example 16, (2-Chloro-4-methyl-thiophen-3-yl)-(4,5-dihydro-1H-imidazol-2-yl)-amine or tautomer] returned a Ki of 0.294 µM.

As for `Clc1cccc(Cl)c1SC1=NCCN1` [Example 18, 2-(2,6-Dichloro-phenylsulfanyl)-4,5-dihydro-1H-imidazole], the Ki came out at 0.03 µM.

Staying with this test, now noted: radioligand used in the TAAR1 binding assay; TAAR1 species not given; read-out: calculated Kd value of the radioligand.
`c1ccc2c(c1)CCCC2C1=NCCN1` (racemic) [[^3H]-rac-2-(1,2,3,4-tetrahydro-1-naphthyl)-2-imidazoline, reference compound]: the Kd was 60 nM.
